Assay: xn = mol fraction of the nth substance listed
Conditions: 101 kPa, Liquid; for speed of sound: Sing-around technique in a fixed-path interferometer

CC(C)CCl [1-chloro-2-methylpropane] + CC(C)OC(C)C
Conditions	mass density [kg/m3]	speed of sound [m/s]
283.15 K, x1 = 0.0549	740.509	1069.1
283.15 K, x1 = 0.091	745.071	1071.7
283.15 K, x1 = 0.1977	758.96	1079.6
283.15 K, x1 = 0.2934	772.077	1087
283.15 K, x1 = 0.3911	785.941	1094.4
283.15 K, x1 = 0.5137	804.21	1103.7
283.15 K, x1 = 0.6034	818.258	1110.5
283.15 K, x1 = 0.6769	830.206	1116.2
283.15 K, x1 = 0.8059	852.473	1126.3
283.15 K, x1 = 0.9111	871.773	1134.7
283.15 K, x1 = 0.9646	881.981	1139
288.15 K, x1 = 0.0549	735.346	1046.8
288.15 K, x1 = 0.091	739.888	1049.4
288.15 K, x1 = 0.1977	753.737	1057.5
288.15 K, x1 = 0.2934	766.807	1064.8
288.15 K, x1 = 0.3911	780.617	1072.3
288.15 K, x1 = 0.5137	798.831	1081.8
288.15 K, x1 = 0.6034	812.821	1088.7
288.15 K, x1 = 0.6769	824.734	1094.5
288.15 K, x1 = 0.8059	846.936	1104.9
288.15 K, x1 = 0.9111	866.179	1113.5
288.15 K, x1 = 0.9646	876.368	1117.9
293.15 K, x1 = 0.0549	730.142	1024.4
293.15 K, x1 = 0.091	734.678	1027
293.15 K, x1 = 0.1977	748.467	1035.1
293.15 K, x1 = 0.2934	761.481	1042.6
293.15 K, x1 = 0.3911	775.245	1050.3
293.15 K, x1 = 0.5137	793.406	1059.9
293.15 K, x1 = 0.6034	807.35	1066.9
293.15 K, x1 = 0.6769	819.228	1072.8
293.15 K, x1 = 0.8059	841.356	1083.4
293.15 K, x1 = 0.9111	860.549	1092.2
293.15 K, x1 = 0.9646	870.717	1096.8
298.15 K, x1 = 0.0549	724.887	1002.1
298.15 K, x1 = 0.091	729.395	1004.7
298.15 K, x1 = 0.1977	743.114	1013
298.15 K, x1 = 0.2934	756.06	1020.5
298.15 K, x1 = 0.3911	769.763	1028.2
298.15 K, x1 = 0.5137	787.825	1038
298.15 K, x1 = 0.6034	801.699	1045.2
298.15 K, x1 = 0.6769	813.519	1051.2
298.15 K, x1 = 0.8059	835.53	1062
298.15 K, x1 = 0.9111	854.603	1071
298.15 K, x1 = 0.9646	864.749	1075.6
303.15 K, x1 = 0.0549	719.603	979.86
303.15 K, x1 = 0.091	724.11	982.53
303.15 K, x1 = 0.1977	737.798	990.87
303.15 K, x1 = 0.2934	750.738	998.49
303.15 K, x1 = 0.3911	764.421	1006.3
303.15 K, x1 = 0.5137	782.446	1016.2
303.15 K, x1 = 0.6034	796.305	1023.5
303.15 K, x1 = 0.6769	808.11	1029.7
303.15 K, x1 = 0.8059	830.111	1040.8
303.15 K, x1 = 0.9111	849.196	1050
303.15 K, x1 = 0.9646	859.307	1054.8
308.15 K, x1 = 0.0549	714.28	957.82
308.15 K, x1 = 0.091	718.759	960.52
308.15 K, x1 = 0.1977	732.397	968.88
308.15 K, x1 = 0.2934	745.3	976.54
308.15 K, x1 = 0.3911	758.935	984.48
308.15 K, x1 = 0.5137	776.901	994.58
308.15 K, x1 = 0.6034	790.719	1002
308.15 K, x1 = 0.6769	802.492	1008.2
308.15 K, x1 = 0.8059	824.422	1019.6
308.15 K, x1 = 0.9111	843.468	1029
308.15 K, x1 = 0.9646	853.542	1033.8
313.15 K, x1 = 0.0549	708.887	935.95
313.15 K, x1 = 0.091	713.334	938.67
313.15 K, x1 = 0.1977	726.882	947.16
313.15 K, x1 = 0.2934	739.693	954.94
313.15 K, x1 = 0.3911	753.227	963
313.15 K, x1 = 0.5137	771.077	973.17
313.15 K, x1 = 0.6034	784.802	980.73
313.15 K, x1 = 0.6769	796.487	987.04
313.15 K, x1 = 0.8059	818.264	998.57
313.15 K, x1 = 0.9111	837.168	1008.1
313.15 K, x1 = 0.9646	847.176	1013

Reference: the NIST ThermoML archive (doi:10.1021/je100765j)
